The values below come from patent publication US20140363898A1, “METHOD FOR THE IDENTIFICATION OF BETA-SHEET AGGREGATED PROTEIN LIGANDS” (Hoffmann-La Roche Inc., priority 2011, published 2014).

For test [1], the target named is T1, aggregated Aβ40 (synthetic) (Homo sapiens, UniProt P05067).
T1 construct: Id; No. 4; host or cells: synthetic peptide
Kind of test: Thiazine-red fluorescence displacement assay on aggregated Aβ40. Conditions: displacement of Thiazin-red at the high affinity binding site; compound 0.3 nM to 10000 nM; 30 min room temperature; average of different experiments; read-out: aggr. Aβ40 IC50. As for the experimental part:
(§1) Recombinant human-microtubule associated protein Tau purified from E. coli is aggregated at a concentration of 5 μM with Arachidonic Acid (100 μM) in Tris 10 mM pH8, 24h at 37° C. Synthetic Aβ40 is aggregated with Arachidonic Acid (100 μM) in Tris 10 mM pH8, for three days at 37° C., under shaking at 150 rpm. […] In parallel, auto fluorescence of the compound is measured together with the aggregated proteins, but without Thiazin-red. As negative control, ligand and aggregated protein is used and as positive control, Thiazin-red, reference compound with known activity and aggregated protein is used. Assay is performed in Perkin Elmer OptiPlate 384, black, 45 ul assay volume, assay buffer is DPBS no CaCl2 no MgCl2 (GIBCO N. 14020). Tested compounds are diluted in DMSO and 2 μl is added to the assay (5% DMSO final). Assay is started by the addition of the aggregated protein (competitive condition). Plates are shortly shacked (1 min with Sterico variomag teleshake) and incubated for 30 min at room temperature. Measurement are done with En:Vision (Perkin Elmer), at Excitation 531 nm/Emission 595 nm.

Test [2] addresses T2, aggregated Tau (recombinant human microtubule associated protein Tau) (Homo sapiens, UniProt P10636).
T2 construct: made in house; host or cells: E. coli
In words: Thiazine-red fluorescence displacement assay on aggregated tau. Conditions: displacement of Thiazin-red at the high affinity binding site; compound 0.3 nM to 10000 nM; 30 min room temperature; average of different experiments; read-out: aggr. TAU IC50. Here is the method:
as §1

The target of test [3] is T3, aggregated alpha-synuclein (human recombinant) (Homo sapiens, UniProt P37840).
T3 construct: made in house; host or cells: E. coli
Kind of test: Thiazine-red fluorescence displacement assay on aggregated alpha-synuclein. Conditions: displacement of Thiazin-red at the high affinity binding site; compound 0.3 nM to 10000 nM; 30 min room temperature; average of different experiments; read-out: aggr. α-syn IC50. Here is the method:
Human recombinant-Alpha-synuclein-purified from E. coli is aggregated with Arachidonic Acid (100 μM) in Tris 10 mM pH 8, for 5 days at 37° C., under shaking at 150 rpm.
Thiazin-red will be added at the concentration corresponding to the Kd to the respective aggregated protein binding site, to induce a fluorescent signal that can be inhibited by the addition of a displacer compound
In parallel, auto fluorescence of the compound is measured together with the aggregated proteins, but without Thiazin-red. As negative control, ligand and aggregated protein is used and as positive control, Thiazin-red, reference compound with known activity and aggregated protein is used.
Assay is performed in Perkin Elmer OptiPlate 384, black, 45 ul assay volume, assay buffer is DPBS no CaCl2 no MgCl2 (GIBCO N. 14020). Tested compounds are diluted in DMSO and 2 μl is added to the assay (5% DMSO final). Assay is started by the addition of the aggregated protein (competitive condition). Plates are shortly shacked (1 min with Sterico variomag teleshake) and incubated for 30 min at room temperature. Measurement are done with En:Vision (Perkin Elmer), at Excitation 531 nm/Emission 595 nm.

T2 sequence (P10636 1-441 isoform P10636-8): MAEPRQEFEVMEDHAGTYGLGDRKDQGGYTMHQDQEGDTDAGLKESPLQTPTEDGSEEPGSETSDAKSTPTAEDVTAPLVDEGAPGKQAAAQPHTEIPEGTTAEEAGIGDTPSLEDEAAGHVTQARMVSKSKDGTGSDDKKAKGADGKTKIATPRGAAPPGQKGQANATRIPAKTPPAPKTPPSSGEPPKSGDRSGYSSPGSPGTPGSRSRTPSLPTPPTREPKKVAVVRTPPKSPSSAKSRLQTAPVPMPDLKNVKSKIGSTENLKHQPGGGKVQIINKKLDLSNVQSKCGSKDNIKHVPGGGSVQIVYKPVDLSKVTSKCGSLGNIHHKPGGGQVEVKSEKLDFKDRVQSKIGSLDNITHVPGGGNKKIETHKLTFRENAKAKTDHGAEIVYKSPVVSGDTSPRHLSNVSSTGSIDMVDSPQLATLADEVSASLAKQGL
T1 sequence (P05067 672-711): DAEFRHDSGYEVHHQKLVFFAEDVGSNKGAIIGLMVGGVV

Take `CNc1ccc(-c2nc3ccc(O)cc3s2)cn1` [AZD2184]: the IC50 is above 10 µM in test [1], 9.8 µM in test [2] and above 10 µM in test [3].

`CNc1ccc(-c2ccc3ccccc3n2)cc1` [BF-158]: the IC50 in test [1], in test [2] and in test [3] was above 10 µM throughout.

In the case of `O=C(O)c1cc(/C=C/c2ccc(/C=C/c3ccc(O)c(C(=O)O)c3)c(Br)c2)ccc1O` [BSB], the values for the IC50 in test [1], in test [2] and in test [3] were 0.0784 µM, 0.0184 µM and 0.0363 µM, respectively.

Consider `Nc1c(/N=N/c2ccc(-c3ccc(/N=N/c4cc(S(=O)(=O)O)c5ccccc5c4N)cc3)cc2)cc(S(=O)(=O)O)c2ccccc12` [Congo Red], for which the IC50 is 0.0136 µM in test [1], 0.0054 µM in test [2] and 0.0044 µM in test [3].

Take `CN(C)c1ccc(C(=C2C=CC(=[N+](C)C)C=C2)c2ccc(N(C)C)cc2)cc1` [Crystal Violet]: the IC50 in test [1] was 1.28 µM; in test [2], 1.55 µM; in test [3], 1.72 µM.

Take `Cc1cc(-c2ccc(/N=N/c3ccc4c(S(=O)(=O)O)cc(S(=O)(=O)O)c(N)c4c3O)c(C)c2)ccc1/N=N/c1ccc2c(S(=O)(=O)O)cc(S(=O)(=O)O)c(N)c2c1O` [Evans Blue]: the IC50 came to 0.0888 µM in test [1], 0.001 µM in test [2] and 0.0076 µM in test [3].

`CC(=C(C#N)C#N)c1ccc2cc(N(C)CCF)ccc2c1` [FDDNP]: the IC50 in test [1] was determined as 1.47 µM; in test [2], 1.64 µM; in test [3], 1.18 µM.

Regarding `CN(C)c1ccc(-c2cn3cc(I)ccc3n2)cc1` [IMPY], the IC50 in test [2] came out at 2.71 µM; in test [3] it was 5.7 µM.

Turning to `COc1cc(/C=C/c2ccc(O)cc2)ccc1/C=C/c1ccc(O)cc1` [MeXO4], the IC50 in test [1] amounted to 0.307 µM; in test [2], 0.494 µM; in test [3], 0.239 µM.

Consider `CNc1ccc(-c2nc3ccc(O)cc3s2)cc1` [PIB], for which the IC50 in test [2] was 3.26 µM; in test [3], 7.02 µM.
